The compounds below were run against PARP7 (Homo sapiens (Human), UniProt Q7Z3E1) (assay: Enzymatic assay for inhibition of PARP7: TR-FRET displacement of biotinylated Probe A from the TIPARP active site). Details: Table A-1.
Chain of PARP7 (Q7Z3E1 whole entry): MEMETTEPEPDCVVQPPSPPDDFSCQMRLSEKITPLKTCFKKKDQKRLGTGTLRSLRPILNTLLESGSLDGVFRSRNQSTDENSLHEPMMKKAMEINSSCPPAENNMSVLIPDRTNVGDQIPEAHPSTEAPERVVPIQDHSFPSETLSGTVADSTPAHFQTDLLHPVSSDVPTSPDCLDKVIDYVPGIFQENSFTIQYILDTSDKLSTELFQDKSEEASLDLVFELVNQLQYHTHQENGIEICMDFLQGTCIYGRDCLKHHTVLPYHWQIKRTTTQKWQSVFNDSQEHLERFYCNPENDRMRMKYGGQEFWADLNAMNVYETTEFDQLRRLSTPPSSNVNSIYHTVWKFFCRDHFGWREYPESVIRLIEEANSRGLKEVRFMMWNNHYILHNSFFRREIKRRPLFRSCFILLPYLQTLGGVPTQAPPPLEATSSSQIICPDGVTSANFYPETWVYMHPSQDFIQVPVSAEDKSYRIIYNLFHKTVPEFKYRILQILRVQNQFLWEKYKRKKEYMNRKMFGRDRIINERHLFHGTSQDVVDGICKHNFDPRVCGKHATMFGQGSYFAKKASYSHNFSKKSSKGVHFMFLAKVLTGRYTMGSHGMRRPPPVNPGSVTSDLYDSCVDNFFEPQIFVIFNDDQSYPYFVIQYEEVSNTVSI
Format: binding
Method in brief: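 Compounds were tested as dose-response series, and reactions were incubated a further 30 min at 25° C. TR-FRET was read at 320 nm excitation with 615 and 665 nm emission after a 90 μs delay. The 665/615 ratio gave the TIPARP–Probe A complex, and % inhibition was fitted against concentration.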
`N#Cc1ccc(N2CCN(C(=O)C[C@H]3CC[C@H]([C@@H]4CCCN4c4cn[nH]c(=O)c4C(F)(F)F)O3)CC2)nc1` [Example 141D, 6-(4-[2-[(2R,5R)-5-[(2S)-1-[6-oxo-5-(trifluoromethyl)-1,6-dihydropyridazin-4-yl]pyrrolidin-2-yl]oxolan-2-yl]acetyl]piperazin-1-yl)pyridine-3-carbonitrile] showed an IC50 of 100 to 1000 nM. Work on `C[C@@H](COCCC(=O)N1CCN(c2ncc(Cl)s2)CC1)Oc1cn[nH]c(=O)c1C(F)(F)F` [Example 723, (S)-5-((1-(3-(4-(5-Chlorothiazol-2-yl)piperazin-1-yl)-3-oxopropoxy)propan-2-yl)oxy)-4-(trifluoromethyl)pyridazin-3(2H)-one] yielded an IC50 of less than 100 nM. `C[C@@H](COCCC(=O)N1CCN(c2ncc(C(F)F)cn2)CC1)Nc1cn[nH]c(=O)c1C(F)(F)F` [Example 706, (S)-5-((1-(3-(4-(5-(Difluoromethyl)pyrimidin-2-yl)piperazin-1-yl)-3-oxopropoxy)propan-2-yl)amino)-4-(trifluoromethyl)pyridazin-3(2H)-one] showed an IC50 of less than 100 nM. Work on `O=c1[nH]ncc(N2Cc3cccc(OCCO)c3C2)c1Cl` [Example 161, 4-Chloro-5-(4-(2-hydroxyethoxy)isoindolin-2-yl)pyridazin-3(2H)-one] yielded an IC50 of 100 to 1000 nM. With `C[C@H]1C[C@@H](COc2cccc(C(=O)N3CCN(c4ccc(C#N)cn4)CC3)c2)N(c2cn[nH]c(=O)c2C(F)(F)F)C1` [Example 70, 6-[4-[(3-[[(2S,4S)-4-methyl-1-[6-oxo-5-(trifluoromethyl)-1,6-dihydropyridazin-4-yl]pyrrolidin-2-yl]methoxy]phenyl)carbonyl]piperazin-1-yl]pyridine-3-carbonitrile] the IC50 was less than 100 nM. In the case of `O=c1[nH]ncc(N2Cc3cccc(OCc4ccccn4)c3C2)c1C(F)(F)F` [Example 198, 5-(4-(Pyridin-2-ylmethoxy)isoindolin-2-yl)-4-(trifluoromethyl)pyridazin-3(2H)-one], the IC50 is reported as less than 100 nM. With `CN(C)CCOc1cccc2c1CN(c1cn[nH]c(=O)c1C(F)(F)F)C2` [Example 212, 5-(4-(2-(Dimethylamino)ethoxy)isoindolin-2-yl)-4-(trifluoromethyl)pyridazin-3(2H)-one] the IC50 was 100 to 1000 nM. `N#Cc1ccc(N2CCN(C(=O)CCOCCOc3cn[nH]c(=O)c3Cl)CC2)nc1` [Example 521, 6-[4-(3-[2-[(5-Chloro-6-oxo-1,6-dihydropyridazin-4-yl)oxy]ethoxy]propanoyl)piperazin-1-yl]pyridine-3-carbonitrile] gave an IC50 of less than 100 nM. `O=c1[nH]ncc(N2Cc3cccc(F)c3C2)c1C(F)(F)F` [Example 180, 5-(4-Fluoroisoindolin-2-yl)-4-(trifluoromethyl)pyridazin-3(2H)-one] showed an IC50 of less than 100 nM. `N#Cc1cnc(N2CCN(C(=O)c3cncc(OC[C@H]4c5ccccc5CN4c4cn[nH]c(=O)c4C(F)(F)F)c3)CC2)nc1` [Example 396, (R)-2-(4-(5-((2-(6-Oxo-5-(trifluoromethyl)-1,6-dihydropyridazin-4-yl)isoindolin-1-yl)methoxy)nicotinoyl)piperazin-1-yl)pyrimidine-5-carbonitrile] gave an IC50 of no less than 1000 nM. `N#Cc1ccc(N2CCN(C(=O)c3cccc(OC[C@@H]4C[C@H](C#N)CN4c4cn[nH]c(=O)c4C(F)(F)F)c3)CC2)nc1` [Example 452, 6-(4-(3-(((2S,4S)-4-Cyano-1-(6-oxo-5-(trifluoromethyl)-1,6-dihydropyridazin-4-yl)pyrrolidin-2-yl)methoxy)benzoyl)piperazin-1-yl)nicotinonitrile] was tested, and the IC50 was less than 100 nM. `O=C(O)c1cccc(OCC2c3ccccc3CN2c2cn[nH]c(=O)c2C(F)(F)F)c1` (stereo not shown) [Example 342, 3-((2-(6-Oxo-5-(trifluoromethyl)-1,6-dihydropyridazin-4-yl)isoindolin-1-yl)methoxy)benzoic acid] showed an IC50 of no less than 1000 nM. For `O=C(CCOCCOc1cn[nH]c(=O)c1Cl)N1CCN(c2ncc(Cl)cn2)CC1` [Example 522, 4-Chloro-5-(2-[3-[4-(5-chloropyrimidin-2-yl)piperazin-1-yl]-3-oxopropoxy]ethoxy)-2,3-dihydropyridazin-3-one], the IC50 was less than 100 nM. `N#Cc1c(OCCOCCC(=O)N2CCN(c3ncc(Cl)cn3)CC2)cn[nH]c1=O` [Example 552, 5-(2-[3-[4-(5-Chloropyrimidin-2-yl)piperazin-1-yl]-3-oxopropoxy]ethoxy)-3-oxo-2,3-dihydropyridazine-4-carbonitrile] gave an IC50 of less than 100 nM. `O=C(c1cccc(OC[C@@H]2CCCN2c2cn[nH]c(=O)c2C(F)(F)F)c1)N1CCN(c2ncccn2)CC1` [Example 445, (S)-5-(2-((3-(4-(Pyrimidin-2-yl)piperazine-1-carbonyl)phenoxy)methyl)pyrrolidin-1-yl)-4-(trifluoromethyl)pyridazin-3(2H)-one] showed an IC50 of less than 100 nM. In the case of `O=c1[nH]ncc(N2Cc3cccc(OC4CCN(CC(c5ccccc5)c5ccccc5)CC4)c3C2)c1C(F)(F)F` [Example 347, 5-(4-((1-(2,2-Diphenylethyl)piperidin-4-yl)oxy)isoindolin-2-yl)-4-(trifluoromethyl)pyridazin-3(2H)-one], the IC50 is reported as less than 100 nM. `O=C(CCOCCNc1cn[nH]c(=O)c1Cl)N1CCN(c2ccc(C(F)(F)F)cn2)CC1` [Example 509, 4-Chloro-5-[[2-(3-oxo-3-[4-[5-(trifluoromethyl)pyridin-2-yl]piperazin-1-yl]propoxy)ethyl]amino]-2,3-dihydropyridazin-3-one] showed an IC50 of less than 100 nM. For `N#Cc1ccc(N2C[C@@H]3C[C@H]2CN3C(=O)CCOC[C@@H]2CCCN2c2cn[nH]c(=O)c2C(F)(F)F)nc1` [Example 112A, 6-[(1S,4S)-5-(3-(((S)-1-(6-oxo-5-(trifluoromethyl)-1,6-dihydropyridazin-4-yl)pyrrolidin-2-yl)methoxy)propanoyl)-2,5-diaza-bicyclo[2.2.1]heptan-2-yl)nicotinonitrile], the IC50 was 100 to 1000 nM. `O=C(c1cccc(OC[C@@H]2CCCN2c2cn[nH]c(=O)c2C(F)(F)F)c1)N1CCN(c2ccc(C(F)(F)F)cn2)CC1` [Example 440, (S)-4-(Trifluoromethyl)-5-(2-((3-(4-(5-(trifluoromethyl)pyridin-2-yl)piperazine-1-carbonyl)phenoxy)methyl)pyrrolidin-1-yl)pyridazin-3(2H)-one] was tested, and the IC50 was less than 100 nM. `COC[C@@H](COCCC(=O)N1CCN(c2ncc(C(F)(F)F)s2)CC1)Nc1cn[nH]c(=O)c1C(F)(F)F` [Example 712, (S)-5-((1-Methoxy-3-(3-oxo-3-(4-(5-(trifluoromethyl)thiazol-2-yl)piperazin-1-yl)propoxy)propan-2-yl)amino)-4-(trifluoromethyl)pyridazin-3(2H)-one] showed an IC50 of less than 100 nM. In the case of `CN1CCCC1COc1cc2c(cc1F)CN(c1cn[nH]c(=O)c1C(F)(F)F)C2` (stereo not shown) [Example 49, 5-[5-fluoro-6-[(1-methylpyrrolidin-2-yl)methoxy]-2,3-dihydro-1H-isoindol-2-yl]-4-(trifluoromethyl)-2,3-dihydropyridazin-3-one; formic acid], the IC50 is reported as less than 100 nM. `COc1cnc2c(c1)CN(c1cn[nH]c(=O)c1C(F)(F)F)C2` [Example 326, 5-(3-Methoxy-5,7-dihydro-6H-pyrrolo[3,4-b]pyridin-6-yl)-4-(trifluoromethyl)pyridazin-3(2H)-one] showed an IC50 of less than 100 nM. In the case of `O=c1[nH]ncc(N2Cc3cccc(OC4CCNCC4)c3C2)c1Br` [Example 172, 4-Bromo-5-(4-(piperidin-4-yloxy)isoindolin-2-yl)pyridazin-3(2H)-one], the IC50 is reported as 100 to 1000 nM. In the case of `O=C(c1cncc(OCC2c3ccccc3CN2c2cn[nH]c(=O)c2C(F)(F)F)c1)N1CCN(c2ccc(C(F)(F)F)cn2)CC1` (stereo not shown) [Example 374, 4-(Trifluoromethyl)-5-(1-(((5-(4-(5-(trifluoromethyl)pyridin-2-yl)piperazine-1-carbonyl)pyridin-3-yl)oxy)methyl)isoindolin-2-yl)pyridazin-3(2H)-one], the IC50 is reported as less than 100 nM. Compound `CC(=O)N1CCCC(COc2cc3c(cc2F)CN(c2cn[nH]c(=O)c2C(F)(F)F)C3)C1` (stereo not shown) [Example 45, 5-[5-[(1-acetylpiperidin-3-yl)methoxy]-6-fluoro-2,3-dihydro-1H-isoindol-2-yl]-4-(trifluoromethyl)-2,3-dihydropyridazin-3-one] has an IC50 of less than 100 nM. `O=C(CCOC[C@@H](CCO)Oc1cn[nH]c(=O)c1C(F)(F)F)N1CCN(c2ncc(Cl)cn2)CC1` [Example 704, (R)-5-((1-(3-(4-(5-Chloropyrimidin-2-yl)piperazin-1-yl)-3-oxopropoxy)-4-hydroxybutan-2-yl)oxy)-4-(trifluoromethyl)pyridazin-3(2H)-one] was tested, and the IC50 was less than 100 nM. Work on `CC(=O)N1CCC(Oc2ccnc3c2CN(c2cn[nH]c(=O)c2C(F)(F)F)C3)CC1` [Example 338, 5-(4-((1-Acetylpiperidin-4-yl)oxy)-5,7-dihydro-6H-pyrrolo[3,4-b]pyridin-6-yl)-4-(trifluoromethyl)pyridazin-3(2H)-one] yielded an IC50 of less than 100 nM. `O=C(c1cncc(OCC2c3ccccc3CN2c2cn[nH]c(=O)c2C(F)(F)F)c1)N1CCN(c2ccc(Cl)cn2)CC1` (stereo not shown) [Example 376, 5-(1-(((5-(4-(5-Chloropyridin-2-yl)piperazine-1-carbonyl)pyridin-3-yl)oxy)methyl)isoindolin-2-yl)-4-(trifluoromethyl)pyridazin-3(2H)-one] was tested, and the IC50 was less than 100 nM. Compound `CN1CCC(COc2cc3c(cc2F)CN(c2cn[nH]c(=O)c2C(F)(F)F)C3)CC1` [Example 22, 5-[5-fluoro-6-[(1-methylpiperidin-4-yl)methoxy]-2,3-dihydro-1H-isoindol-2-yl]-4-(trifluoromethyl)-2,3-dihydropyridazin-3-one] has an IC50 of less than 100 nM. In the case of `N#Cc1ccc(N2CCN(C(=O)C3CC(OC[C@@H]4CCCN4c4cn[nH]c(=O)c4C(F)(F)F)C3)CC2)nc1` (single isomer, unassigned; isomer a) [Example 95 Isomer A], the IC50 is reported as less than 100 nM. `COC[C@@H](COCCC(=O)N1CCN(c2cnc(C(F)(F)F)cn2)CC1)Nc1cn[nH]c(=O)c1C(F)(F)F` [Example 681, (S)-5-((1-Methoxy-3-(3-oxo-3-(4-(5-(trifluoromethyl)pyrazin-2-yl)piperazin-1-yl)propoxy)propan-2-yl)amino)-4-(trifluoromethyl)pyridazin-3(2H)-one] showed an IC50 of less than 100 nM.
